Data as given in patent publication US20260258003A1, “SLACK-ACTIVATING COMPOUNDS AND THEIR MEDICAL USE” (Johann Wolfgang Goethe-Universität Frankfurt am Main, priority 2023, published 2026).
Like-named read-outs stand apart in the source and are kept apart here.

Legend:
human Slack = molecular target: T1, human Slack (Homo sapiens, UniProt Q5JUK3); experiment: FluxOR potassium ion channel assay in HEK-Slack cells; format: cell-based; conditions: Na+ free buffer with 2 mM Ca2+, 2 mM Mg2+, 0.03% DMSO; for Emax: read-out: FluxOR assay EMAX (% relative to Loxapine)
T1 construct: host or cells: HEK293
T1 sequence (Q5JUK3 1-1230): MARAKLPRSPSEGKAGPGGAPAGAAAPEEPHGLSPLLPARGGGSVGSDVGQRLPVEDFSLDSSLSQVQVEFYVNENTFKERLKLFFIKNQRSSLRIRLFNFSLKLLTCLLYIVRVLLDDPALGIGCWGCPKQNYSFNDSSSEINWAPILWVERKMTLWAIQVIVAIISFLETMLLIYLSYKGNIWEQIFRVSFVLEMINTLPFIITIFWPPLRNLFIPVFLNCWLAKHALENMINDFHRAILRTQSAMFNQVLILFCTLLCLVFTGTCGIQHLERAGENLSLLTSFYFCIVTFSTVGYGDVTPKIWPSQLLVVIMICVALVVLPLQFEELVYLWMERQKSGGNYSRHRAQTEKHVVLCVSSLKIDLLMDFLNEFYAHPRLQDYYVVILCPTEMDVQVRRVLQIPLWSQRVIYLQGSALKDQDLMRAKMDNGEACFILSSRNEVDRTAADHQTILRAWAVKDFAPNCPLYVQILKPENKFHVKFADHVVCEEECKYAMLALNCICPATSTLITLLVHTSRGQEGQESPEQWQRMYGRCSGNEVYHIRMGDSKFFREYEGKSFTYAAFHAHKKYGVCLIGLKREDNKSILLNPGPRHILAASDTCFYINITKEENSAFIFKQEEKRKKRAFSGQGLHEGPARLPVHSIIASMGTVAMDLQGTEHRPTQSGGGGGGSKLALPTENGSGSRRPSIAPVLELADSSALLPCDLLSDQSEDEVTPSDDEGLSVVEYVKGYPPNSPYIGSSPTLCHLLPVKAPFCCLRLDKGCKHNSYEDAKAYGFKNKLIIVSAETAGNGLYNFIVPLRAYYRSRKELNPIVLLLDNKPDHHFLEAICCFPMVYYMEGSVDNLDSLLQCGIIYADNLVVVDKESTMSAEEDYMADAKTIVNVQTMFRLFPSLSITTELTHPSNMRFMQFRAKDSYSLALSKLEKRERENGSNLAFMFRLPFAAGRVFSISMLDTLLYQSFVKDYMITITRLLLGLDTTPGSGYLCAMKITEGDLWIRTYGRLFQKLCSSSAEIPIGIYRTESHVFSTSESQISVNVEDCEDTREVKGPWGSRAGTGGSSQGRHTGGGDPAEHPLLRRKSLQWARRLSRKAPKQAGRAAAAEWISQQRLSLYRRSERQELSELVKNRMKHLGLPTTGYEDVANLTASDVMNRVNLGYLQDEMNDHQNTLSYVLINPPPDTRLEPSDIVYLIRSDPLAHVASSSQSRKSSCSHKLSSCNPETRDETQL
Experimental: For that purpose, cultured HEK293 cells stably expressing human Slack (herein referred to as HEK-Slack cells) were incubated with compounds in a Na^+ free buffer to prevent compound-independent Slack activation by monovalent cations^7,19.
In detail, in these experiments, the Slack-activating efficacy and potency of the novel compounds was determined using a commercial FluxOR™ Potassium Ion Channel Assay (Invitrogen). HEK293 cells stably expressing human Slack (herein referred to as HEK-Slack cells) were plated at a density of 50,000 cells per well of a poly-D-lysine coated (75 μg/mL, Sigma Aldrich) 96-well, black-walled microplate with clear bottom (Greiner Bio-One) in DMEM containing 10% FBS and 1% penicillin/streptomycin 24 hours prior to assaying.
On the experiment day, cells were loaded with FluxOR™ dye according to the manufacturer's protocol. A Na^+-free assay buffer containing 140 mM choline chloride, 5 mM KCl, 2 mM CaCl2), 2 mM MgSO4, 10 mM HEPES, 5.55 mM glucose, adjusted to pH 7.4 with KOH, was used. To reduce background fluorescence all assay components were complemented by 10% BackDrop™ Background Suppressor (Invitrogen). […]
After washing steps, cells were incubated with compounds for 30 min at 37° C. All compounds were prepared as a 33.3 mM DMSO stock and diluted at the experimental day to a final concentration of 100, 50, 25, 12.5, 6.25, and 3.125 μM in assay buffer containing […] DMSO. […] After stimulation with Tl2SO4 solution, the fluorescence was measured over 100 s (excitation 485 nm, emission 525 nm) using an Infinite M200 Microplate Reader (Tecan). Assays run in triplicate and the ratio to baseline fluorescence was calculated for all time points. Dose-response curves comprising six concentrations were performed in triplets using fluorescence/fluorescenceBaseline ratios at the 100th second.

[1] = BBB-specific parallel artificial membrane permeability assay (PAMPA-BBB); format: in vitro ADME, porcine; conditions: pH 7.4, 37° C.; for MR (membrane retention factor): 4 h; for Papp at 4 h, 100 μM: pig, Pe in cm/s, read-out: BBB permeability log Pe (converted)
Experimental: BBB permeability was estimated using a BBB-specific parallel artificial membrane permeability assay (PAMPA-BBB). […] Five v/v % DMSO in PBS (Phosphate Buffer Saline; 0.01 M, pH=7.4) buffer solutions of each compound were prepared with the final nominal concentration of 100 μM. These solutions were treated with ultrasonic waves and then centrifuged in case the test compounds were insoluble at this concentration. Proceeding with saturated, homogenous solutions (CD(0)) is sufficient because log Pe only depends on relative concentrations. A BBB specific PAMPA system was used to determine the log Pe and membrane retention (MR). Each well of the top plate (MultiScreen […]10; Millipore; Billerica, US) was carefully coated with 5 μL of porcine polar brain lipid extract (PBLE; Avanti Polar Lipids, Birmingham, US) solution, then 150 μL of the CD(0) solution was put on the membrane. The bottom plate (MultiScreen MDCPN2M50; Millipore, Billerica, US) was filled with […] PBS. PBLE solution consisted of 1 mg PBLE per 10 μL n-dodecane and 30 μL n-hexane. The donor plate was put on the acceptor plate and covered with a wet paper tissue and a plate lid. The sandwich system was incubated at 37° C. for 4 h. The plates were shaken and incubated in a Thermo ScientificTM MaxQTM 4000 Benchtop Orbital Shaker (Gel, Belgium). After the incubation, PAMPA sandwich plates were separated and compound concentrations in donor (CD(t)) and acceptor (CA(t)) solutions were determined by UPLC-MS (Waters, Milford, US). The concentration of the donor solution at zero time point (CD(0)) was determined using the supernatant after centrifugation.

[2] = mean with 95% confidence interval, read-out: FluxOR assay EC50
[3] = mean with 95% confidence interval

| Compound | EC50 (human Slack; [2]) [µM] | Emax (human Slack; [3]) [%] | MR (membrane retention factor) [1] | Papp at 4 h, 100 μM [1] [×10⁻⁶ cm/s] | EC50 (human Slack; first preliminary experiments, read-out: EC50 value in the first preliminary experiments) [µM] |
| --- | --- | --- | --- | --- | --- |
| CN1CCCN(C2=Nc3ccccc3Oc3ccc(C(F)(F)F)cc32)CC1 [Compound 3, 11-(4-Methyl-1,4-diazepan-1-yl)-2-(trifluoromethyl)dibenzo[b,f][1,4]oxazepine] | 3.2 | 63.1 | 0.5 | 38 |  |
| O=c1nc(CN2CCN(C3=Nc4ccccc4Oc4ccc(Cl)cc43)CC2)[nH][nH]1 [Compound 10, 5-((4-(2-Chlorodibenzo[b,f][1,4]oxazepin-11-yl)piperazin-1-yl)methyl)-1,2-dihydro-3H-1,2,4-triazol-3-one] | 22.1 | 120 | 0.02 |  |  |
| O=C(O)COCCN1CCCN(C2=Nc3ccccc3Oc3ccc(C(F)(F)F)cc32)CC1 [Compound 9, 2-(2-(4-(2-(Trifluoromethyl)dibenzo[b,f][1,4]oxazepin-11-yl)-1,4-diazepan-1-yl)ethoxy) acetic acid] | 50.9 | 186 | −0.10 | 35.5 |  |
| OCCOCCN1CCN(C2=Nc3ccccc3Sc3ccc(Cl)cc32)CC1 [Compound 7, 2-(2-(4-(2-Chlorodibenzo[b,f][1,4]thiazepin-11-yl)piperazin-1-yl)ethoxy) ethan-1-ol] | 30 | 87.4 | 0.19 | 53.7 |  |
| CN1CCN(C2=Nc3ccccc3Oc3ccc(C(F)(F)F)cc32)CC1 [Compound 2, 11-(4-Methylpiperazin-1-yl)-2-(trifluoromethyl)dibenzo[b,f][1,4]oxazepine] | 6.3 | 114 | 0.64 | 26.3 |  |
| O=C(O)COCCN1CCN(C2=Nc3ccccc3Oc3ccc(Cl)cc32)CC1 [Compound 6, 2-(2-(4-(2-Chlorodibenzo[b,f][1,4]oxazepin-11-yl)piperazin-1-yl)ethoxy) acetic acid] | 30.3 | 96.2 |  | 24.5 |  |
| O=C(O)COCCN1CCN(C2=Nc3ccccc3Oc3ccc(C(F)(F)F)cc32)CC1 [Compound 8, 2-(2-(4-(2-(Trifluoromethyl)dibenzo[b,f][1,4]oxazepin-11-yl)piperazin-1-yl)ethoxy) acetic acid] | 62.5 | 177 |  | 26.3 |  |
| OCCN1CCN(C2=Nc3ccccc3Oc3ccc(Cl)cc32)CC1 [Compound 5, 2-(4-(2-Chlorodibenzo[b,f][1,4]oxazepin-11-yl)piperazin-1-yl) ethan-1-ol] | 26 | 223 | 0.03 | 39.8 |  |
| CN1CCN(C2=Nc3cc(F)ccc3Oc3ccc(C(F)(F)F)cc32)CC1 [Compound 4, 8-Fluoro-11-(4-methylpiperazin-1-yl)-2-(trifluoromethyl)dibenzo[b,f][1,4]oxazepine] | 41.5 | 199 | 0.74 | 21.4 |  |
| CN1CCN(C2=Nc3ccccc3Oc3ccc(Cl)cc32)CC1 [Loxapine, 2-chloro-11-(4-methylpiperazin-1-yl)dibenzo[b,f][1,4]oxazepine, reference compound] | 20.7 | 100 | 0.33 |  | 23.4 |
